Measurements taken from article doi:10.1101/2023.10.20.563248v1 (biorxiv, 2023).

Assays:
Conditions in all cases: 1 µM; inhibitor
CAMK1D = CAMK1D (Homo sapiens, UniProt Q8IU85)
GRK3 = GRK3 (Homo sapiens, UniProt P35626)
MLK4 = MLK4 (Homo sapiens, UniProt Q5TCX8)
SLK = SLK (Homo sapiens, UniProt Q9H2G2)
TRKA = TRKA (Homo sapiens, UniProt P04629)
CDC42BPB = CDC42BPB (Homo sapiens, UniProt Q9Y5S2)
SYK = SYK (Homo sapiens, UniProt P43405)
TSSK1 = TSSK1 (Homo sapiens, UniProt Q9BXA7)
LKB1/MO25a/STRADa = LKB1/MO25a/STRADa (Homo sapiens, UniProt Q15831)
CDK13 = CDK13 (Homo sapiens, UniProt Q14004)
IRAK4 = IRAK4 (Homo sapiens, UniProt Q9NWZ3)
DYRK2 = DYRK2 (Homo sapiens, UniProt Q92630)
WNK3 = WNK3 (Homo sapiens, UniProt Q9BYP7)
PKN3 = PKN3 (Homo sapiens, UniProt Q6P5Z2)
JAK2 = JAK2 (Homo sapiens, UniProt O60674)
DCAMKL2 = DCAMKL2 (Homo sapiens, UniProt Q8N568)
LRRK2 = LRRK2 (Homo sapiens, UniProt Q5S007)
PDGFRb = PDGFRb (Homo sapiens, UniProt P09619)
MERTK = MERTK (Homo sapiens, UniProt Q12866)
LIMK1 = LIMK1 (Homo sapiens, UniProt P53667)
IRAK1 = IRAK1 (Homo sapiens, UniProt P51617)
BRSK1 = BRSK1 (Homo sapiens, UniProt Q8TDC3)
RPS6KA3 = RPS6KA3 (Homo sapiens, UniProt P51812)
PLK1 = PLK1 (Homo sapiens, UniProt P53350)
MEKK3 = MEKK3 (Homo sapiens, UniProt Q99759)
YES = YES (Homo sapiens, UniProt P07947)
JAK3 = JAK3 (Homo sapiens, UniProt P52333)
MAP4K5 = MAP4K5 (Homo sapiens, UniProt Q9Y4K4)
FRK = FRK (Homo sapiens, UniProt P42685)
MARK2 = MARK2 (Homo sapiens, UniProt Q7KZI7)
p38b = p38b (Homo sapiens, UniProt Q15759)

Sequence of CAMK1D (Q8IU85 whole entry): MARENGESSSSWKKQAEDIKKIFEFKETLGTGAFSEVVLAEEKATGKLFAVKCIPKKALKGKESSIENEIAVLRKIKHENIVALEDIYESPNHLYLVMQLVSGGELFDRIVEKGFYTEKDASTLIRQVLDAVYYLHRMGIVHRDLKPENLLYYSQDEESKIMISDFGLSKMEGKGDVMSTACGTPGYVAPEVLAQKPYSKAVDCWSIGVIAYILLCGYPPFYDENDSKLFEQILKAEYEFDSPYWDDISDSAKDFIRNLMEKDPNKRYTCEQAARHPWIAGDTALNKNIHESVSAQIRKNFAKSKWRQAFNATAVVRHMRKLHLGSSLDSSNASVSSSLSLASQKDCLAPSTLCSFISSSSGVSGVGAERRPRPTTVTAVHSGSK
Sequence of IRAK4 (Q9NWZ3 whole entry): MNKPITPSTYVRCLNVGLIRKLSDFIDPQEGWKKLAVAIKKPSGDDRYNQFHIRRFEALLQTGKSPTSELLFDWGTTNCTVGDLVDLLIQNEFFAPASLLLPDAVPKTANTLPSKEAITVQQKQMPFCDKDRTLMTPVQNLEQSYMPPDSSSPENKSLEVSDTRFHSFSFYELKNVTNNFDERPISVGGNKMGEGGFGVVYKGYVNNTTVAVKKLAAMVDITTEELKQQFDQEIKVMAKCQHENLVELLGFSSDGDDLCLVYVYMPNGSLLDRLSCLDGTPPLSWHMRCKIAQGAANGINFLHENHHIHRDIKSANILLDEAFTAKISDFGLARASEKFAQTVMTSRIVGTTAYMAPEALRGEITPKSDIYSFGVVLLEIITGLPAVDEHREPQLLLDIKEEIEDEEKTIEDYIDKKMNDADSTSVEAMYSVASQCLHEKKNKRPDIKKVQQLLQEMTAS
Sequence of JAK3 (P52333 whole entry): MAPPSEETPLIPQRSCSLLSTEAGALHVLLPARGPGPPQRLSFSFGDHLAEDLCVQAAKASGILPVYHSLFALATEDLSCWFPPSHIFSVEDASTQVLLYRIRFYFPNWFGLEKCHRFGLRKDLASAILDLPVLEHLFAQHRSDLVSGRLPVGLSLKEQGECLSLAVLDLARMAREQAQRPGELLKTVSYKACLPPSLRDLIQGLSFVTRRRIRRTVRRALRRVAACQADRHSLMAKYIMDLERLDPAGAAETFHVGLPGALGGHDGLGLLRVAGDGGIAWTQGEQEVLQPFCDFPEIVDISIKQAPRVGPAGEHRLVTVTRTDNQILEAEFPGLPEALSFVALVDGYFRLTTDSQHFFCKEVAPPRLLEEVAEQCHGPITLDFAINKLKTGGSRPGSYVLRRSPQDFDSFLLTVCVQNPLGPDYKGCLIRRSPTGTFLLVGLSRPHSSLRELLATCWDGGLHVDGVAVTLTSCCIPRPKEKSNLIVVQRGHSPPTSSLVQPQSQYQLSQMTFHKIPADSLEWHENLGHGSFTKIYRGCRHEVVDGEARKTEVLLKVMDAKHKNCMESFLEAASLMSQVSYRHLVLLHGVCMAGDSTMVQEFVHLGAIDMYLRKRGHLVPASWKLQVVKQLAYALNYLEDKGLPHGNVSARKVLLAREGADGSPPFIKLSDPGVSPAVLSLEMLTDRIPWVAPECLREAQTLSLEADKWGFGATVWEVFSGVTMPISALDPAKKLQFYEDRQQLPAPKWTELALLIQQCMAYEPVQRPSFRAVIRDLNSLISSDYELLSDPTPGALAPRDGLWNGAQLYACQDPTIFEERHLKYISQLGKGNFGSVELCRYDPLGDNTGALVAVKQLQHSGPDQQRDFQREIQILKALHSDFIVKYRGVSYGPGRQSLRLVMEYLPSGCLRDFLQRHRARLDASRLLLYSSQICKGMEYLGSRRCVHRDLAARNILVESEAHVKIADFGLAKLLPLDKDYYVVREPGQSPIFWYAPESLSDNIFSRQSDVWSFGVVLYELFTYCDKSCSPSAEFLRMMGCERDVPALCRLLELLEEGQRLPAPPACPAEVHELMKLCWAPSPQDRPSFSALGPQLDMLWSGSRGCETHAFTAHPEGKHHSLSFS
Sequence of BRSK1 (Q8TDC3 whole entry): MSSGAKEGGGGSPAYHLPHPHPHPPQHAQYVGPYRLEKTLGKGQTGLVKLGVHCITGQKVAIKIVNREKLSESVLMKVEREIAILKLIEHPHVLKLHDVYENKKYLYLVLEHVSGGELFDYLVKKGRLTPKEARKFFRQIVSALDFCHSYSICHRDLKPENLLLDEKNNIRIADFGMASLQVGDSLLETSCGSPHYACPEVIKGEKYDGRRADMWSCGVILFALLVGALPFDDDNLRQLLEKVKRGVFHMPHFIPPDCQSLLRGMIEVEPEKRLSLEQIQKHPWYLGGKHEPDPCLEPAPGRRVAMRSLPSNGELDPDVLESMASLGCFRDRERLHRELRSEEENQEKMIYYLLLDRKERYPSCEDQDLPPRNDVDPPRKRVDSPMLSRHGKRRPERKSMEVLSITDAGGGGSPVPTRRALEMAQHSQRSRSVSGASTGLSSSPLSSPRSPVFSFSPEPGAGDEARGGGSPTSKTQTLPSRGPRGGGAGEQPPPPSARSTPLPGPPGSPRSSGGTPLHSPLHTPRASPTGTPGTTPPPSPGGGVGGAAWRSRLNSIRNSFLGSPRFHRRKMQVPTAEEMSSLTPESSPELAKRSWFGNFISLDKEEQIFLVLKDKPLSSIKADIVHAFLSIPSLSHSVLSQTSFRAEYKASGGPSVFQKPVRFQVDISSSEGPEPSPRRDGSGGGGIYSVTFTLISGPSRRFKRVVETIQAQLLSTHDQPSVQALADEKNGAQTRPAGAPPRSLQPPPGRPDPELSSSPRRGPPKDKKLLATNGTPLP
Sequence of JAK2 (O60674 whole entry): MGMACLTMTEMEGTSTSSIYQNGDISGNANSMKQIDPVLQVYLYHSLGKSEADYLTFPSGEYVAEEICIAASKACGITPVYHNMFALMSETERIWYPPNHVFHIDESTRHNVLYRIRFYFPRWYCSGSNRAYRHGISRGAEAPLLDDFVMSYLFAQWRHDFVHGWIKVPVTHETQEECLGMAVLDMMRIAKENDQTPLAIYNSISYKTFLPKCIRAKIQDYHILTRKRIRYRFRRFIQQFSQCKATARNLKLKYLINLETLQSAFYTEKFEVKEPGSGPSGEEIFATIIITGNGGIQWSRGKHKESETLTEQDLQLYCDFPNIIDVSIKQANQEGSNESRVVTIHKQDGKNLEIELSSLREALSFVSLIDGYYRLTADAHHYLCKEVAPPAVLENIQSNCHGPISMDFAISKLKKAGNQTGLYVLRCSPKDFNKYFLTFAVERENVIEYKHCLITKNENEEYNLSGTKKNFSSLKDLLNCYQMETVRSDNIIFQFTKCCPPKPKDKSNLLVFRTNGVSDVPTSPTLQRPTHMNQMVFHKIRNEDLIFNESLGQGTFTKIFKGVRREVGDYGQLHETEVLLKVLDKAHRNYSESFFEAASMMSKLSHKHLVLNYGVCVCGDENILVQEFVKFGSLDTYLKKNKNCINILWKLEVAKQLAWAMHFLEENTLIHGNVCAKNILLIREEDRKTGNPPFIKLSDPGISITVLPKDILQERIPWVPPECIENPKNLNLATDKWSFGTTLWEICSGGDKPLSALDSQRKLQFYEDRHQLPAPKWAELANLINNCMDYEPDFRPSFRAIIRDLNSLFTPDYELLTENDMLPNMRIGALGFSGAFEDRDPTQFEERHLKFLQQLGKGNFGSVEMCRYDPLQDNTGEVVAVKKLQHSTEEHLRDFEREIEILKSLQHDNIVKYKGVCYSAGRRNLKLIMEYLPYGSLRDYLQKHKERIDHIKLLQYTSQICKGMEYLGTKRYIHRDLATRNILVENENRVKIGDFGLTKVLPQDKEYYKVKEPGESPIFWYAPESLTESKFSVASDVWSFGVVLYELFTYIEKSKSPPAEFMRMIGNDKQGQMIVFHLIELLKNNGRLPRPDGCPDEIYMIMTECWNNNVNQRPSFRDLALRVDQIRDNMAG
Sequence of MEKK3 (Q99759 whole entry): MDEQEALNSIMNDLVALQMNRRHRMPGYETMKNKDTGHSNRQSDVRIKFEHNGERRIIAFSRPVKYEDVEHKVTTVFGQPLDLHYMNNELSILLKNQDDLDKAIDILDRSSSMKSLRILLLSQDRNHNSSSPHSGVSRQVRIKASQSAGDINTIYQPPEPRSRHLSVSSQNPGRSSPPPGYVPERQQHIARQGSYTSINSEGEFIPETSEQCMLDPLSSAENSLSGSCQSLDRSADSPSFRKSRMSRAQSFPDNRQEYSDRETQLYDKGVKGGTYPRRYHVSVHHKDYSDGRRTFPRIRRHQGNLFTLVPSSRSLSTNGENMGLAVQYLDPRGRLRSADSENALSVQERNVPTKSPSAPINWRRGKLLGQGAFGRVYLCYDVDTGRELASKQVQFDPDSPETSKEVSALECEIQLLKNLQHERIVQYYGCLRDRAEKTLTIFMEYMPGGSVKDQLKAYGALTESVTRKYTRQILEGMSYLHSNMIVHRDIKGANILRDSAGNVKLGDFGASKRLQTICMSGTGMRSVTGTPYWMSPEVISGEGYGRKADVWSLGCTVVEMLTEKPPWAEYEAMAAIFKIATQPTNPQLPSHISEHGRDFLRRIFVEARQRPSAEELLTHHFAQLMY
Sequence of YES (P07947 whole entry): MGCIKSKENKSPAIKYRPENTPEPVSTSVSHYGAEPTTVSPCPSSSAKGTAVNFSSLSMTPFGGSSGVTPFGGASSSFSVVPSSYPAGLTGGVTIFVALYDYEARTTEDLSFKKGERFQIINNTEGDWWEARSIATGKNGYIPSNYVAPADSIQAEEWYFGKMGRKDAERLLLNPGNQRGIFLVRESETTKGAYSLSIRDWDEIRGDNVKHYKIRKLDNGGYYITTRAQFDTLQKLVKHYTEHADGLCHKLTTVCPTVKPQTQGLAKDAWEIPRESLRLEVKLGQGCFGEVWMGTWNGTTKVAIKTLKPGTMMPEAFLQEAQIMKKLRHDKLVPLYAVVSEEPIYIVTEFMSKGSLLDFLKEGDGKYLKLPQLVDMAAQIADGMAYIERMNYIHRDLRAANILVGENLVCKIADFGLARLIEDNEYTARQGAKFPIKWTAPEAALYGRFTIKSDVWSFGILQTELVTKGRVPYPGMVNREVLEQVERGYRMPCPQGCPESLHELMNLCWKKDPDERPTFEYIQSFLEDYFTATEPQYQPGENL

21c Remaining activity, percent of control [%] (CAMK1D): 103.0%
21c Remaining activity, percent of control [%] (GRK3): 97.4%
21c Remaining activity, percent of control [%] (MLK4): 99.1%
21c Remaining activity, percent of control [%] (SLK): 61.9%
21c Remaining activity, percent of control [%] (TRKA): 90.8%
21c Remaining activity, percent of control [%] (CDC42BPB): 106.6%
21c Remaining activity, percent of control [%] (SYK): 99.7%
21c Remaining activity, percent of control [%] (TSSK1): 95.8%
21c Remaining activity, percent of control [%] (LKB1/MO25a/STRADa): 105.1%
21c Remaining activity, percent of control [%] (CDK13): 101.2%
21c Remaining activity, percent of control [%] (IRAK4): 87.3%
21c Remaining activity, percent of control [%] (DYRK2): 91.4%
21c Remaining activity, percent of control [%] (WNK3): 98.5%
21c Remaining activity, percent of control [%] (PKN3): 92.6%
21c Remaining activity, percent of control [%] (JAK2): 96.2%
21c Remaining activity, percent of control [%] (DCAMKL2): 99.3%
21c Remaining activity, percent of control [%] (LRRK2): 90.3%
21c Remaining activity, percent of control [%] (PDGFRb): 71.2%
21c Remaining activity, percent of control [%] (MERTK): 44.2%
21c Remaining activity, percent of control [%] (LIMK1): 36.6%
21c Remaining activity, percent of control [%] (IRAK1): 101.8%
21c Remaining activity, percent of control [%] (BRSK1): 112.9%
21c Remaining activity, percent of control [%] (RPS6KA3): 87.3%
21c Remaining activity, percent of control [%] (PLK1): 89.3%
21c Remaining activity, percent of control [%] (MEKK3): 105.8%
21c Remaining activity, percent of control [%] (YES): 81.2%
21c Remaining activity, percent of control [%] (JAK3): 115.4%
21c Remaining activity, percent of control [%] (MAP4K5): 78.8%
21c Remaining activity, percent of control [%] (FRK): 104.0%
21c Remaining activity, percent of control [%] (MARK2): 98.8%
21c Remaining activity, percent of control [%] (p38b): 92.9%
SMILES: O=C1NCCCCCNc2nc(c3ccccc3n2)Nc2cc1[nH]n2 [21c, (Z)-3^1H-2,5,11-triaza-1(4,2)-quinazolina-3(3,5)-pyrazolacycloundecaphan-4-one]
